Source: article PMC8149447, “Caerulomycin and collismycin antibiotics share a trans-acting flavoprotein-dependent assembly line for 2,2’-bipyridine formation” (Nature Communications, 2021)

What was measured:
CaeB1 [1] = target: T1, CaeB1 (Actinoalloteichus caeruleus, UniProt M1F383, S168A); experiment: absorbance spectrum; activity rescue by added FAD; type: biochemical; conditions: noncovalent; excess FAD added in the product assay
T1 construct: full length, N-terminal 6xHis (or MBP-6xHis) tag, expressed in E. coli; noncovalent FAD

CaeB1 [2] = target: T2, CaeB1 (Actinoalloteichus caeruleus, UniProt M1F383, E372L); experiment: absorbance spectrum of purified protein; type: binding; conditions: noncovalent; co-purified, oxidized form
T2 construct: full length, N-terminal 6xHis (or MBP-6xHis) tag, expressed in E. coli; noncovalent FAD

CaeB1 [3] = target: T3, CaeB1 (Actinoalloteichus caeruleus, UniProt M1F383); experiment: absorbance spectrum; heat denaturation and HPLC-HR-MS; type: binding; conditions: noncovalent; co-purified, oxidized form
T3 construct: full length, N-terminal 6xHis (or MBP-6xHis) tag, expressed in E. coli; noncovalent FAD
T3 sequence (M1F383 1-386): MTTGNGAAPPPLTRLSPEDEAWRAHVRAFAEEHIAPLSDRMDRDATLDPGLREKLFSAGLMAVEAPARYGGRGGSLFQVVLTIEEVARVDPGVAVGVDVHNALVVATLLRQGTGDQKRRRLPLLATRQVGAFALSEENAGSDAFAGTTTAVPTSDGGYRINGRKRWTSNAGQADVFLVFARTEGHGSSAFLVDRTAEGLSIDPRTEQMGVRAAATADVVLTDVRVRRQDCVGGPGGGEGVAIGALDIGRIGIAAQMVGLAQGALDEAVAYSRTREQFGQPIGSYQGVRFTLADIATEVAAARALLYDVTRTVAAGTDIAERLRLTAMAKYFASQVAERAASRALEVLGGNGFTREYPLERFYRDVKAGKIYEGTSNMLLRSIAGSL

ColB1 = target: T4, ColB1 (Streptomyces filamentosus, UniProt A0ABY4UQ20); experiment: heat denaturation and HPLC-DAD / ESI-HR-MS; type: binding; conditions: noncovalent; co-purified
T4 construct: gene K7395_06050; full length, N-terminal 6xHis (or MBP-6xHis) tag; noncovalent FAD
T4 sequence (A0ABY4UQ20 1-394): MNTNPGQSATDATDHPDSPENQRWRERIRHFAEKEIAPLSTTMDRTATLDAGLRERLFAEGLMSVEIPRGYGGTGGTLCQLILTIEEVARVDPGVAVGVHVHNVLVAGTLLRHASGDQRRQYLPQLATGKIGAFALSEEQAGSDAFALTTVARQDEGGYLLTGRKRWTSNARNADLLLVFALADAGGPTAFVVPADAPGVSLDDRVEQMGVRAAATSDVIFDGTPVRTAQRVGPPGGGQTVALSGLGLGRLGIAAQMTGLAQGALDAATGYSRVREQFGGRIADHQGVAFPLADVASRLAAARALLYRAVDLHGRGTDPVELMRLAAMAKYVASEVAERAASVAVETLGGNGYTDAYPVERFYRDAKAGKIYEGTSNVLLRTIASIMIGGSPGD

ColA3 = target: T5, ColA3 (Streptomyces filamentosus, UniProt A0ABY4UPY4); experiment: HPLC / MS of product […] (as IAA derivative […]) or […]; type: biochemical; conditions: reconstituted with CaeA1, CaeA2, CaeB1; picolinic acid, malonyl-CoA, L-cysteine, ATP, Mg, pH 7.5, 30 C
T5 construct: gene K7395_06055; full length C-A-PCP module, N-terminal 6xHis (or MBP-6xHis) tag

[4] = target: N-terminally thioredoxin (Trx)-tagged Ct domain of the CaeA2 NRPS module (A. cyanogriseus (CAE-producing strain)); experiment: ITC; MicroCal-ITC200, 25°C; 60 μM CaeA2 construct in the cell, 400 μM flavoprotein in the syringe; 50 mM Tris-HCl pH 7.5, 100 mM NaCl, 0.1 mM TCEP, 5% glycerol; single binding site model
[5] = target: Ct-PCP didomain of the CaeA2 NRPS module (A. cyanogriseus (CAE-producing strain)); experiment: as above
MBP-fused CaeB1 variant = target: T6, MBP-fused CaeB1 variant (A. cyanogriseus (CAE-producing strain), UniProt M1F383 1-386); experiment: as above; conditions: both partners purified
T6 construct: CaeB1, flavin (FAD)-dependent protein of the caerulomycin (cae) biosynthetic gene cluster; also called trans-acting flavoprotein; not shown: MBP, N-terminal, kept
T6 sequence (looked up): T3 sequence (M1F383 1-386)

T2 sequence (M1F383 entry or part of it E372L): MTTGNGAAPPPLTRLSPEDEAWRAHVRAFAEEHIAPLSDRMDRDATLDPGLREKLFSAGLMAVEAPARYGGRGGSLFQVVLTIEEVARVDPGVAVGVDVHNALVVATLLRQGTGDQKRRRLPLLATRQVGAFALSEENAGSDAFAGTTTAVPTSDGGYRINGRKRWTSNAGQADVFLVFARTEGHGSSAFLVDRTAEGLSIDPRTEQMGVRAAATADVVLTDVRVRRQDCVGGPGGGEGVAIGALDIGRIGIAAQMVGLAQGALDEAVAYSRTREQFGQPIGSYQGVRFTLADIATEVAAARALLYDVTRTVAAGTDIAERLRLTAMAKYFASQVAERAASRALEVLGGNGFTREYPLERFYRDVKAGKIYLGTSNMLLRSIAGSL
T5 sequence (A0ABY4UPY4 entry or part of it): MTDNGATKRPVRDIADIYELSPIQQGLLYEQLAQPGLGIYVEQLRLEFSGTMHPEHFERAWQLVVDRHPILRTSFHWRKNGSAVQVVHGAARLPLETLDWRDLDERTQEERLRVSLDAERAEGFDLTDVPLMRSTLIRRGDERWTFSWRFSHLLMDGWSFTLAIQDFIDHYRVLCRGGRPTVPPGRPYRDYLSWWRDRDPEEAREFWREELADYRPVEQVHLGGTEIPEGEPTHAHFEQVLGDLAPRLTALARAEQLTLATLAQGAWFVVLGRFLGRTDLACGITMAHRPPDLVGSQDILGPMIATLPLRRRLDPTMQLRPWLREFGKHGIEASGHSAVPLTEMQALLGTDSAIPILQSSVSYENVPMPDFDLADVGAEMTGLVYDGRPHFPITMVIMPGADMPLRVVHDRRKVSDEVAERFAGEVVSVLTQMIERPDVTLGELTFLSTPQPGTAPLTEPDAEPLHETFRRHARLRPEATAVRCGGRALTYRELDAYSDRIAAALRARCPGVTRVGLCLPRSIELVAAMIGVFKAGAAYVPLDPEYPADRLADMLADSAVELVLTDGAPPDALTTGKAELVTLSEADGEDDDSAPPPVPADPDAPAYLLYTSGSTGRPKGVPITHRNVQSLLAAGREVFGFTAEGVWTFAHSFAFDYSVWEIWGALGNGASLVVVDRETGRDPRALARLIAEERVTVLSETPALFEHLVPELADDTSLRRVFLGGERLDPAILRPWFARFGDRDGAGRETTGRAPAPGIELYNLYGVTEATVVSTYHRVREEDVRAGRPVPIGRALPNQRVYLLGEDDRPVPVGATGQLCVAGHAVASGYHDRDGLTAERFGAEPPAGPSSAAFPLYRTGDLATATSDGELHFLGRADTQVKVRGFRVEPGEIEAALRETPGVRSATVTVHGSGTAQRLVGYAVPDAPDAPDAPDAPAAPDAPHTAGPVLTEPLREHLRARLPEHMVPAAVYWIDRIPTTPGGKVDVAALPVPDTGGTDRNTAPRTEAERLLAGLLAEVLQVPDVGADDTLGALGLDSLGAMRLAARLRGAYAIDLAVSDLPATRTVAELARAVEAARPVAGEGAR
T1 sequence (M1F383 entry or part of it S168A): as the sequence (M1F383 entry or part of it E372L) above, with S168A, L372E counted along it

Cc1cc2nc3c(=O)[nH]c(=O)nc-3n(C[C@H](O)[C@H](O)[C@H](O)COP(=O)(O)OP(=O)(O)OC[C@H]3O[C@@H](n4cnc5c(N)ncnc54)[C@H](O)[C@@H]3O)c2cc1C [FAD] was tested, and the FAD-binding ability (CaeB1 [1]) was “the latter variant was nearly colorless, indicating the loss of FAD-binding ability”, the “absorbance spectrum of purified protein” value (CaeB1 [2]) was “shares with the wild-type protein a light yellow color and an absorbance spectrum characteristic of FAD” and the “absorbance spectrum; heat denaturation and HPLC-HR-MS” value (CaeB1 [3]) was “Purified CaeB1, which appeared light yellow, was determined to bind oxidized flavin adenine dinucleotide (FAD)”. For the same molecule, the “heat denaturation and HPLC-DAD / ESI-HR-MS” value (ColB1) was “ColB1, the homolog of trans-acting flavoprotein CaeB1 that also noncovalently binds a FAD cofactor”.

With CC(C)C[C@H](N)C(=O)O [L-leucine] the “HPLC / MS of product 15 (as IAA derivative 17) or 16” value (ColA3) was “incubating CaeA1, CaeA2, and CaeB1 with ColA3 in the presence of the necessary substrates”.

With ColB1 (enzyme) the Kd [4] was 1180 nM.

B1: MBP-fused CaeB1 variant (enzyme)
chain: T3 sequence (M1F383 1-386)
B1 was tested, and the Kd [5] was 420 nM.

B2: N-terminally thioredoxin (Trx)-tagged Ct domain of the CaeA2 NRPS module (domain or fragment)
chain: EQEADGTVAPFTPHQAALVAEGAVDWITVEAAASDLDPALAERALREIADRHPALRLRSGTRDDGTPGQYDGGSPGDGLFSEIDLSGLAEDARDDALAEIVAEMSEEVGLAEREPVKLAVVRAGADDVRLLWLAAGAALDDTSWRLLLAEFGRAYQQLAERGSIDWTGMPESVLGWVATQEGAAPPPSVETVAFTGELRTVLDADVTTAFAEATFGAYHLELGEAVAAALTVAARAWPGREPAVTVERSLRTATTDEALGRFTEVTTLDVAAEAVADTLTGVKRAYRDVVRPAPAHPRVHLRDVRSGDWRPTAGPLSPAGLSSPVSTATTPEVLAEVGAAVVGGELVLRWRHTTDAAEATALAEAFTEAVETITEHCRQAGSGSYEPSDFPLAGVDPDELSALLSTLEK
modifications: Trx/6xHis tag omitted; Ct primers not in the excerpt; start placed just after the Carrier feature (2001-2075), in line with the 58 kDa Trx fusion and the 44 kDa difference between CaeA2 and …
Molecule B2 has a Kd (MBP-fused CaeB1 variant) of 530 ± 120 nM.
